According to PMC12155840 (Molecules, 2025):

Experiments:
[1] = test system: ECV304 human cell line; set-up: method as in PMID 18704879; conditions: ECV304 in vitro BBB model; cited from earlier work
[2] = target: T1, human A1 adenosine receptor (hA1R) (Homo sapiens, UniProt P30542); test: cAMP inhibition assay, direct agonist mode, in CHO-K1-hA1R cells (Cisbio cAMP Gi kit, forskolin co-stimulation); conditions: 0.01 to 50 µM
T1 sequence (P30542 1-326): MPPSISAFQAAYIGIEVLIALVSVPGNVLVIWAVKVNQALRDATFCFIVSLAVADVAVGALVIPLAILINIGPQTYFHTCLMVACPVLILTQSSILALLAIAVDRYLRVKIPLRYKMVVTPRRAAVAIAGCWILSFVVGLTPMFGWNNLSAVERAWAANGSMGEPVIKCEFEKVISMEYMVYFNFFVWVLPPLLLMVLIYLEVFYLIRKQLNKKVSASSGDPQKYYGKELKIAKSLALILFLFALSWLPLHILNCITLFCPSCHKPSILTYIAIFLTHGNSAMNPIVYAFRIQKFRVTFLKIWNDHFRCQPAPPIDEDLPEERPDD

[3] = target: T2, human A1 receptor (Homo sapiens, UniProt P30542); test: cAMP inhibition assay, allosteric mode with CPA as orthosteric agonist (DiscoverX HitHunter cAMP XS+), CHO-K1 cells overexpressing the human A1 receptor; operational allosteric ternary complex model; type: cell-based; conditions: for αβ / τB: antilogarithm; for Kb: antilogarithm of logKB; for Kd: operational model fit, read-out: logKB (converted)
T2 construct: host or cells: CHO-K1
T2 sequence (P30542 1-326): T1 sequence (P30542 1-326)
Description: Experiments with CPA as an agonist: In experiments with CPA as an agonist, inhibition of intracellular cAMP production in response to CPA stimulation of the receptor was determined using a functional assay in CHO-K1 cells overexpressing the human A1 receptor (Eurofins DiscoverX Corporation, Fremont, CA, USA). Cells were seeded in a total volume of 20 μL into white-walled, 384-well microplates and incubated at 37 °C for the appropriate time prior to testing.
Experiments with CPA as an agonist: cAMP production was measured using the DiscoverX HitHunter cAMP XS+ assay (Eurofins DiscoverX Corporation, Fremont, CA, USA). For allosteric modulation studies, cells were pre-incubated with allosteric modulators at various concentrations, followed by induction with the agonist CPA at its EC20 concentration (i.e., the concentration eliciting 20% of the maximal response). Media were aspirated from cells and replaced with 10 μL of HBSS (10 mM HEPES). Sample stocks were diluted to prepare a 4-fold higher (4x) concentration than the final in-well concentration. Next, 5 μL of the 4x compound was added to the cells and incubated at room temperature or 37 °C for 10 min. This was followed by the addition of 5 μL of the 4x EC20 agonist solution and further incubation for 30 min at 37 °C. To stimulate intracellular cAMP production and provide a dynamic range for detecting Gi-mediated inhibition, forskolin at its EC80 was included in all experiments. The final DMSO (vehicle) concentration was 1%. After incubation with compounds, the assay signal was generated by adding 5 uL of and cAMP XS+ Ab reagent followed by 20 μL of the cAMP XS+ ED/CL lysis cocktail and then incubating for 1 h. This was followed by adding 20 μL of the cAMP XS+ EA reagent and incubating for 2 h at room temperature. Chemiluminescent signals were detected using a PerkinElmer EnVision™ instrument. Compound activity was analyzed using the CBIS data analysis suite (ChemInnovation, San Diego, CA, USA). Control dose–response curves were generated using CPA as the agonist. Data were normalized to the maximal response observed with CPA (positive control) and the minimal response observed with vehicle (1% DMSO, negative control).
The operational allosteric ternary complex model (ATCM) accounts for the ability of an allosteric ligand to modify affinity and/or efficacy and even activate a receptor independently. This model describes a simplified case for positive allosteric modulators (PAMs), where the orthosteric ligand is a full agonist.
Explanation of parameters: A = Agonist concentration; B = Allosteric modulator concentration; KB = Dissociation constant for the modulator; αβ = Allosteric coupling constant; τB = Intrinsic activity of the modulator; EC50 = Half-maximal effective concentration of the agonist; n = Hill coefficient; Emax = Maximal system response; Basal = Basal activity (response in the absence of any ligand); Span = Emax − Basal (difference between maximum and basal activity).
The response curve Y is defined as follows: Y=Basal+Span·(Part1)/(Part1+Part2) where Part1=A·KB+αβ·B+τB·B·EC50^n Part2=(EC50^n·(KB+B))^n Span=Emax−Basal

[4] = target: T1, human A1 adenosine receptor (hA1R); test: cAMP inhibition assay, allosteric mode with adenosine as orthosteric agonist, CHO-K1-hA1R cells; operational allosteric ternary complex model; type: cell-based; set-up: host or cells: CHO-K1; conditions: for Logαβ (binding and activation cooperativity) / αβ / τB / Kb / Kd / LogτB (operational efficacy as allosteric agonist): orthosteric agonist adenosine; for αβ / τB: antilogarithm; for Kb: antilogarithm of logKB; for Kd: operational model fit, read-out: logKB (converted); for Allosteric modulation of adenosine-induced cAMP inhibition (shift of concentration-response curve): test compound at 20 µM
[5] = test system: rat A1 receptors; set-up: method as in PMID 30644086; conditions: 1, 10 and 30 µM, rat A1 receptors in HEK293T cells; cited from earlier work
[6] = test system: human A1 receptors; set-up: method as in PMID 30644086; conditions: 1, 10 and 30 µM, human A1 receptors in HEK293T cells; cited from earlier work
[7] = set-up: method as in PMID 16220575; conditions: human, oral 600 mg valerian extract; cited from earlier work
[8] = set-up: method as in PMID 22411722; conditions: rats; cited from earlier work
[9] = set-up: method as in PMID 19156843; conditions: isolated perfused rat livers; cited from earlier work

CC1=C2[C@@H]([C@H](C)CC[C@H]2/C=C(\C)C(=O)O)[C@H](O)C1 [hydroxyvalerenic acid]
permeation of the BBB model relative to diazepam [1]: significantly slower than diazepam

COc1cc([C@H]2OC[C@H]3[C@@H]2CO[C@@H]3c2ccc(O)c(OC)c2)ccc1O [Pinoresinol, (+)-pinoresinol]
Intrinsic agonist activity: effect on forskolin-stimulated cAMP levels in the absence of adenosine [2]: no significant reduction in cAMP levels | Logαβ (binding and activation cooperativity) [3]: −0.1 | LogτB (operational efficacy as allosteric agonist) [3]: 0.22 | αβ [3]: 0.79 | τB [3]: 1.66 | Kb [3]: 316 µM | Kd [3]: 316 µM | Logαβ (binding and activation cooperativity) [4]: 0.53 | αβ [4]: 3.42 | τB [4]: 0.93 | Kb [4]: 25.8 µM | Kd [4]: 26.3 µM

O=C(/C=C/c1ccc(O)c(O)c1)O[C@@H]1C[C@](O)(C(=O)O)C[C@@H](O)[C@H]1O [Chlorogenic acid, chlorogenic acid]
Allosteric modulation of adenosine-induced cAMP inhibition (shift of concentration-response curve) [4]: no significant shift

COc1cc(/C=C/C(=O)O)ccc1O [Ferulic acid, trans-ferulic acid]
Allosteric modulation of adenosine-induced cAMP inhibition (shift of concentration-response curve) [4]: no significant shift

Nc1scc(-c2cccc(C(F)(F)F)c2)c1C(=O)c1ccccc1 [VCP 171, reference compound]
Logαβ (binding and activation cooperativity) [3]: 1.11 | LogτB (operational efficacy as allosteric agonist) [3]: 0.3 | αβ [3]: 12.73 | τB [3]: 1.99 | Kb [3]: 10.8 µM | Kd [3]: 11 µM | effect on binding affinity of orthosteric agonists [5]: enhanced the binding affinity of orthosteric agonists | effect on binding affinity of orthosteric agonists [6]: enhanced the binding affinity of orthosteric agonists | Logαβ (binding and activation cooperativity) [4]: −0.43 | LogτB (operational efficacy as allosteric agonist) [4]: 0.42 | αβ [4]: 0.37 | τB [4]: 2.66 | Kb [4]: 9.38 µM | Kd [4]: 9.55 µM

CC1=C2[C@H](/C=C(\C)C(=O)O)CC[C@@H](C)[C@H]2CC1 [Valerenic Acid, Valerenic acid]
Intrinsic agonist activity: effect on forskolin-stimulated cAMP levels in the absence of adenosine [2]: no significant reduction in cAMP levels | half-life [7]: approximately 1.1 h | peak plasma concentration of valerenic acid (molar) [7]: ~ 10 nM | Logαβ (binding and activation cooperativity) [3]: 1.36 | LogτB (operational efficacy as allosteric agonist) [3]: 0.49 | αβ [3]: 23.38 | τB [3]: 3.14 | Kb [3]: 17.4 µM | oral bioavailability [8]: 33.7% | Logαβ (binding and activation cooperativity) [4]: 0.68 | LogτB (operational efficacy as allosteric agonist) [4]: 0.77 | αβ [4]: 4.79 | τB [4]: 5.98 | Kb [4]: 244 µM | permeation of the BBB model relative to diazepam [1]: significantly slower than diazepam | hepatic metabolism [9]: undergoes extensive hepatic metabolism, primarily through glucuronidation

CC(=O)O[C@@H]1CC(C)=C2[C@H]1[C@H](C)CC[C@H]2/C=C(\C)C(=O)O [acetoxyvalerenic acid]
permeation of the BBB model relative to diazepam [1]: significantly slower than diazepam

COc1ccc(/C=C/C(=O)O)cc1O [Isoferulic acid, trans-isoferulic acid]
Allosteric modulation of adenosine-induced cAMP inhibition (shift of concentration-response curve) [4]: no significant shift

COc1cc([C@H]2OC[C@]3(O)[C@@H](c4ccc(O)c(OC)c4)OC[C@H]23)ccc1O [8-Hydroxypinoresinol, 8-Hydroxy-pinoresinol]
Allosteric modulation of adenosine-induced cAMP inhibition (shift of concentration-response curve) [4]: no significant shift

COc1cc([C@H]2OC[C@H]3[C@@H]2CO[C@@H]3c2ccc(O[C@@H]3O[C@H](CO)[C@@H](O)[C@H](O)[C@H]3O)c(OC)c2)ccc1O [Pinoresinol-4-O-glucoside, pinoresinol-4-O-Glucoside]
Allosteric modulation of adenosine-induced cAMP inhibition (shift of concentration-response curve) [4]: no significant shift

COc1cc([C@H]2OC[C@H]3[C@@H]2CO[C@@H]3c2ccc(O[C@@H]3O[C@H](CO)[C@@H](O)[C@H](O)[C@H]3O)c(OC)c2)ccc1O[C@@H]1O[C@H](CO)[C@@H](O)[C@H](O)[C@H]1O [Pinoresinol diglucoside, pinoresinol-diglucoside]
Allosteric modulation of adenosine-induced cAMP inhibition (shift of concentration-response curve) [4]: no significant shift

COc1cc([C@H]2OC[C@](O)(Cc3ccc(O[C@@H]4O[C@H](CO)[C@@H](O)[C@H](O)[C@H]4O)c(OC)c3)[C@@H]2CO)ccc1O [Olivil-4-O-glucoside, (−)-olivil 4′-O-glucoside]
Allosteric modulation of adenosine-induced cAMP inhibition (shift of concentration-response curve) [4]: no significant shift

COc1cc(C[C@]2(O)CO[C@@H](c3ccc(O)c(OC)c3)[C@@H]2CO)ccc1O [Olivil, (−)-olivil]
Allosteric modulation of adenosine-induced cAMP inhibition (shift of concentration-response curve) [4]: no significant shift

O=C(O)/C=C/c1ccc(O)cc1 [Coumaric acid, coumaric acid]
Allosteric modulation of adenosine-induced cAMP inhibition (shift of concentration-response curve) [4]: no significant shift

COc1ccc([C@@H]2CC(=O)c3c(O)cc(O[C@@H]4O[C@H](CO[C@@H]5O[C@@H](C)[C@H](O)[C@@H](O)[C@H]5O)[C@@H](O)[C@H](O)[C@H]4O)cc3O2)cc1O [Hesperidin]
Allosteric modulation of adenosine-induced cAMP inhibition (shift of concentration-response curve) [4]: slight leftward shift in the dose-response curve
